The target of the assay is T1, human recombinant HPK1 (Homo sapiens, UniProt Q92918).
T1 construct: purchased BPS Bioscience
In words: Inhibitory activity against human recombinant HPK1 (TR-FRET). It is filed as biochemical. The following applies: ULight-p70S6K peptide, ATP at Km, room temperature, 1 hour, 0.32 to 1000 nM compound. The method in brief:
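IC50 classes A–D use 10, 50 and 100 nM cut-offs, derived from TR-FRET signal inhibition relative to DMSO controls. Human recombinant HPK1 phosphorylated ULight-p70S6K peptide at Km ATP for 1 h, room temperature, pH 7.4; test range 0.32–1000 nM final, detection with Eu-labelled antibody after EDTA quench.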
A general note: Time-resolved FRET reads energy transfer from a long-lived donor to a nearby acceptor.

Structures can show the parent of a compound that is named as a salt.

T1 sequence (Q92918 whole entry): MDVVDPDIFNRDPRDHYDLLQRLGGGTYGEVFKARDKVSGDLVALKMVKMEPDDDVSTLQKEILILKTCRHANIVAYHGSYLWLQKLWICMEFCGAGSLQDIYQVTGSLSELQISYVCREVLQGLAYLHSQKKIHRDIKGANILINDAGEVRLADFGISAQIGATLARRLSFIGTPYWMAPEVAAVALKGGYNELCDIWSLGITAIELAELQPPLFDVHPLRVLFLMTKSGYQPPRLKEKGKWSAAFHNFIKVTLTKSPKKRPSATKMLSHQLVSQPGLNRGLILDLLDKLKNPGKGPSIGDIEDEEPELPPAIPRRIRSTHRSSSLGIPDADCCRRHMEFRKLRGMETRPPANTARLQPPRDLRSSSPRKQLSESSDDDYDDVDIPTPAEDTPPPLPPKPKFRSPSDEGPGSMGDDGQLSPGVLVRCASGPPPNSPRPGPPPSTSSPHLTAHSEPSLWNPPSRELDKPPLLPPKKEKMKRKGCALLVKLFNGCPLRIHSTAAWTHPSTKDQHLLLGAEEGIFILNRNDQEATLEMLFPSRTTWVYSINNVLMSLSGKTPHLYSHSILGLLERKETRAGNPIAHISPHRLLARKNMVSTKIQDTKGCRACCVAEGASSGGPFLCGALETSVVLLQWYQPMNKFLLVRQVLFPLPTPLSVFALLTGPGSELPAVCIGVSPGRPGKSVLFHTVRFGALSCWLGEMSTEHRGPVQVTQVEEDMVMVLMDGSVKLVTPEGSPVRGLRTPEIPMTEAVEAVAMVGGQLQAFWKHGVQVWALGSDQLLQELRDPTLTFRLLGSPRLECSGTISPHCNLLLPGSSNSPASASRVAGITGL

In general, IC50 refers to the concentration that inhibits the measured activity by half. As to `COc1cccc(F)c1-c1nccc(Nc2cc(N3CCCC(CF)C3)c(-c3cnn(C4CCOCC4)c3)cn2)n1` (stereo not drawn) [Example 85, 2-(2-fluoro-6-methoxyphenyl)-N-(4-(3-(fluoromethyl)piperidin-1-yl)-5-(1-(tetrahydro-2H-pyran-4-yl)-1H-pyrazol-4-yl)pyridin-2-yl)pyrimidin-4-amine], the IC50 was at most 10 nM.

With `COc1cccc(F)c1-c1nccc(Nc2cc(N3CCCC(NC(C)=O)C3)c(-c3cnn(C4CCOCC4)c3)cn2)n1` (stereo not drawn) [Example 86, N-(1-(2-((2-(2-fluoro-6-methoxyphenyl)pyrimidin-4-yl)amino)-5-(1-(tetrahydro-2H-pyran-4-yl)-1H-pyrazol-4-yl)pyridin-4-yl)piperidin-3-yl)acetamide], the IC50 was 50 to 100 nM.

`COc1cccc(F)c1-c1nccc(Nc2cc(N3CCC(C(F)(F)F)CC3)c(-c3cnn(C4CCOCC4)c3)cn2)n1` [Example 87, 2-(2-fluoro-6-methoxyphenyl)-N-(5-(1-(tetrahydro-2H-pyran-4-yl)-1H-pyrazol-4-yl)-4-(4-(trifluoromethyl)piperidin-1-yl)pyridin-2-yl)pyrimidin-4-amine]: the 50% inhibitory concentration (IC50) was at most 10 nM.

For the compound `N[C@H]1CCCN(c2cc(Nc3ccnc(-c4cc5nccnc5cc4F)n3)ncc2-c2cnn(C(F)F)c2)C1` [Example 88, (S)-N-(4-(3-aminopiperidin-1-yl)-5-(1-(difluoromethyl)-1H-pyrazol-4-yl)pyridin-2-yl)-2-(7-fluoroquinoxalin-6-yl)pyrimidin-4-amine hydrochloride], the IC50 is at most 10 nM.

With `N[C@H]1CCCN(c2cc(Nc3ccnc(-c4cc5nccnc5cc4F)n3)ncc2-c2cnn(CC(F)(F)F)c2)C1` [Example 89, (S)-N-(4-(3-aminopiperidin-1-yl)-5-(1-(2,2,2-trifluoroethyl)-1H-pyrazol-4-yl)pyridin-2-yl)-2-(7-fluoroquinoxalin-6-yl)pyrimidin-4-amine hydrochloride], the IC50 was at most 10 nM.

`COCCn1cc(-c2cnc(Nc3ccnc(-c4c(F)cccc4OC)n3)cc2N2CCC[C@H](N)C2)cn1` [Example 91, (S)-N-(4-(3-aminopiperidin-1-yl)-5-(1-(2-methoxyethyl)-1H-pyrazol-4-yl)pyridin-2-yl)-2-(2-fluoro-6-methoxyphenyl)pyrimidin-4-amine hydrochloride]: the IC50 was at most 10 nM.

`COc1cccc(F)c1-c1nccc(Nc2cc(N3CCC4(CCNC4)CC3)c(-c3cnn(C4CCOCC4)c3)cn2)n1` [Example 92, N-(4-(2,8-diazaspiro[4.5]decan-8-yl)-5-(1-(tetrahydro-2H-pyran-4-yl)-1H-pyrazol-4-yl)pyridin-2-yl)-2-(2-fluoro-6-methoxyphenyl)pyrimidin-4-amine hydrochloride]: the IC50 is at most 10 nM.

Consider `COc1cccc(F)c1-c1nccc(Nc2cc(N3CCC4(CCNCC4)C3)c(-c3cnn(C4CCOCC4)c3)cn2)n1` [Example 93, N-(4-(2,8-diazaspiro[4.5]decan-2-yl)-5-(1-(tetrahydro-2H-pyran-4-yl)-1H-pyrazol-4-yl)pyridin-2-yl)-2-(2-fluoro-6-methoxyphenyl)pyrimidin-4-amine hydrochloride], for which the IC50 lay in the range of 10 to 50 nM.

As for `COc1cccc(F)c1-c1nccc(Nc2cc(N3CC[C@@H](F)[C@H](O)C3)c(-c3cnn(C4CCOCC4)c3)cn2)n1` [Example 94, (3R,4R)-4-fluoro-1-(2-((2-(2-fluoro-6-methoxyphenyl)pyrimidin-4-yl)amino)-5-(1-(tetrahydro-2H-pyran-4-yl)-1H-pyrazol-4-yl)pyridin-4-yl)piperidin-3-ol], the IC50 is at most 10 nM.

As for `COc1cccc(F)c1-c1nccc(Nc2cc(N3CC[C@H](CO)[C@@H](O)C3)c(-c3cnn(C4CCOCC4)c3)cn2)n1` [Example 95, (3R,4R)-1-(2-((2-(2-fluoro-6-methoxyphenyl)pyrimidin-4-yl)amino)-5-(1-(tetrahydro-2H-pyran-4-yl)-1H-pyrazol-4-yl)pyridin-4-yl)-4-(hydroxymethyl)piperidin-3-ol], the IC50 was at most 10 nM.

On to `COc1cccc(F)c1-c1nccc(Nc2cc(N3CC[C@@H](N)C3)c(-c3cnn(C4CCOCC4)c3)cn2)n1` [Example 96, (R)-N-(4-(3-aminopyrrolidin-1-yl)-5-(1-(tetrahydro-2H-pyran-4-yl)-1H-pyrazol-4-yl)pyridin-2-yl)-2-(2-fluoro-6-methoxyphenyl)pyrimidin-4-amine hydrochloride], for which the IC50 is at most 10 nM.

Turning to `COc1cccc(F)c1-c1nccc(Nc2cc(N3CC[C@H](N)C3)c(-c3cnn(C4CCOCC4)c3)cn2)n1` [Example 97, (S)-N-(4-(3-aminopyrrolidin-1-yl)-5-(1-(tetrahydro-2H-pyran-4-yl)-1H-pyrazol-4-yl)pyridin-2-yl)-2-(2-fluoro-6-methoxyphenyl)pyrimidin-4-amine hydrochloride], the IC50 is at most 10 nM.

Turning to `COc1cccc(F)c1-c1nccc(Nc2cc(N3CCC[C@H](N)C3)c(-c3cnc(C4CCN(C)CC4)s3)cn2)n1` [Example 98, (S)-N-(4-(3-aminopiperidin-1-yl)-5-(2-(1-methylpiperidin-4-yl)thiazol-5-yl)pyridin-2-yl)-2-(2-fluoro-6-methoxyphenyl)pyrimidin-4-amine hydrochloride], the IC50 is at most 10 nM.

In the case of `N[C@H]1CCCN(c2cc(Nc3ccnc(-c4cc5nccnc5cc4F)n3)ncc2-c2ccc(C3CCOCC3)nc2)C1` [Example 99, (S)-4-(3-aminopiperidin-1-yl)-N-(2-(7-fluoroquinoxalin-6-yl)pyrimidin-4-yl)-6′-(tetrahydro-2H-pyran-4-yl)-[3,3′-bipyridin]-6-amine hydrochloride], the IC50 fell in the range of 10 to 50 nM.

On to `COc1cccc(F)c1-c1nc(Nc2cc(N3CCC[C@H](N)C3)c(-c3cnn(CC(F)(F)F)c3)cn2)ccc1F` [Example 100, 4-((S)-3-aminopiperidin-1-yl)-N-(5-fluoro-6-(2-fluoro-6-methoxyphenyl)pyridin-2-yl)-5-(1-(2,2,2-trifluoroethyl)-1H-pyrazol-4-yl)pyridin-2-amine hydrochloride], for which the IC50 was at most 10 nM.

In the case of `COc1cc(CO)cc(F)c1-c1nccc(Nc2cc(N3CCC[C@H](N)C3)c(-c3cnn(C(F)F)c3)cn2)n1` [Example 101, (S)-(4-(4-((4-(3-aminopiperidin-1-yl)-5-(1-(difluoromethyl)-1H-pyrazol-4-yl)pyridin-2-yl)amino)pyrimidin-2-yl)-3-fluoro-5-methoxyphenyl)methanol hydrochloride], the IC50 was at most 10 nM.

For the compound `COc1cc(CO)cc(F)c1-c1nccc(Nc2cc(N3CCC[C@H](N)C3)c(-c3cnn(CC(F)(F)F)c3)cn2)n1` [Example 102, (S)-(4-(4-((4-(3-aminopiperidin-1-yl)-5-(1-(2,2,2-trifluoroethyl)-1H-pyrazol-4-yl)pyridin-2-yl)amino)pyrimidin-2-yl)-3-fluoro-5-methoxyphenyl)methanol hydrochloride], the IC50 is at most 10 nM.

With `COc1cc(CO)cc(F)c1-c1nccc(Nc2cc(N3CCC[C@H](N)C3)c(C#CC3CCOCC3)cn2)n1` [Example 103, (S)-(4-(4-((4-(3-aminopiperidin-1-yl)-5-((tetrahydro-2H-pyran-4-yl)ethynyl)pyridin-2-yl)amino)pyrimidin-2-yl)-3-fluoro-5-methoxyphenyl)methanol hydrochloride], the IC50 is at most 10 nM.

Take `COc1cc(CN(C)C)cc(F)c1-c1nccc(Nc2cc(N3CCC[C@H](N)C3)c(-c3cnn(C(F)F)c3)cn2)n1` [Example 104, (S)-N-(4-(3-aminopiperidin-1-yl)-5-(1-(difluoromethyl)-1H-pyrazol-4-yl)pyridin-2-yl)-2-(4-((dimethylamino)methyl)-2-fluoro-6-methoxyphenyl)pyrimidin-4-amine hydrochloride]: the IC50 was at most 10 nM.

`COc1cc(CN(C)C)cc(F)c1-c1nccc(Nc2cc(N3CCC[C@H](N)C3)c(-c3cnn(CC(F)(F)F)c3)cn2)n1` [Example 105, (S)-N-(4-(3-aminopiperidin-1-yl)-5-(1-(2,2,2-trifluoroethyl)-1H-pyrazol-4-yl)pyridin-2-yl)-2-(4-((dimethylamino)methyl)-2-fluoro-6-methoxyphenyl)pyrimidin-4-amine hydrochloride]: the IC50 was at most 10 nM.

On to `COc1cc(CN(C)C)cc(F)c1-c1nccc(Nc2cc(N3CCC[C@H](N)C3)c(C#CC3CCOCC3)cn2)n1` [Example 106, (S)-N-(4-(3-aminopiperidin-1-yl)-5-((tetrahydro-2H-pyran-4-yl)ethynyl)pyridin-2-yl)-2-(4-((dimethylamino)methyl)-2-fluoro-6-methoxyphenyl)pyrimidin-4-amine hydrochloride], for which the IC50 is at most 10 nM.

As to `COc1cccc(F)c1-c1nccc(Nc2cc(N3CCC[C@H](N)C3)c(-c3cnn(C(F)(F)F)c3)cn2)n1` [Example 107, (S)-N-(4-(3-aminopiperidin-1-yl)-5-(1-(trifluoromethyl)-1H-pyrazol-4-yl)pyridin-2-yl)-2-(2-fluoro-6-methoxyphenyl)pyrimidin-4-amine hydrochloride], the IC50 is at most 10 nM.

On to `COc1cc(F)cc(F)c1-c1nccc(Nc2cc(N3CCC[C@H](N)C3)c(-c3cnn(C(F)F)c3)cn2)n1` [Example 108, (S)-N-(4-(3-aminopiperidin-1-yl)-5-(1-(difluoromethyl)-1H-pyrazol-4-yl)pyridin-2-yl)-2-(2,4-difluoro-6-methoxyphenyl)pyrimidin-4-amine hydrochloride], for which the half-inhibitory concentration (IC50) was at most 10 nM.

For the compound `COc1cc(F)cc(F)c1-c1nccc(Nc2cc(N3CCC[C@H](N)C3)c(-c3cnn(CC(F)(F)F)c3)cn2)n1` [Example 109, (S)-N-(4-(3-aminopiperidin-1-yl)-5-(1-(2,2,2-trifluoroethyl)-1H-pyrazol-4-yl)pyridin-2-yl)-2-(2,4-difluoro-6-methoxyphenyl)pyrimidin-4-amine], the IC50 is at most 10 nM.

The values are drawn from patent publication US20260347338A1, “PYRIMIDINE/PYRIDINE DERIVATIVES OR SALTS THEREOF AND PHARMACEUTICAL COMPOSITIONS COMPRISING THE SAME” (YUHAN CORPORATION, priority 2023, published 2026).
